Laboratory results as given in patent publication EP2014284A1, “Pharmaceutical compositions and uses” (NOVARTIS AG, priority 2007, dated 2009).
Marks after values point to notes of the source that are not given here.

System: hypertensive OA patients
Description: Method: A 4-week, multicenter, randomized, double-blind, double-dummy, parallel group study of hypertensive OA patients aged ≥50 years (office BP ≤140/90 mmHg) on stable antihypertensive treatment. […] The primary outcome measure was the change from baseline (BL) at Week 4 in 24-hour mean ambulatory systolic BP (MASBP) in the intent-to-treat (ITT) population using ANCOVA. The secondary analyses included 24-hour mean ambulatory diastolic BP (MADBP […]. In addition, a post-hoc subgroup analysis was performed to evaluate the primary and secondary analysis at Week 4 (using ANCOVA) for patients exclusively on ACE inhibitors as antihypertensive drug.

[1] = change from baseline, lumiracoxib (n=140) vs ibuprofen (n=132), patients exclusively on ACE-inhibitors, p<0.001

Row | Clinically relevant increase (>= 5 mm Hg increase in 24 h MADBP and/or >= 10 mm Hg increase in 24h MASBP), number of patients (human, in vivo, 4 weeks) | Clinically relevant increase (>= 5 mm Hg increase in 24 h MADBP and/or >= 10 mm Hg increase in 24h MASBP), share of patients (human, in vivo, 4 weeks) | Structure (SMILES) | increase in MASBP (change from BL at Week 4, 24-hour MASBP, ibuprofen 600 mg tid) | decrease in MASBP (change from BL at Week 4, 24-hour MASBP, lumiracoxib 100 mg od) | 24 h MADBP Difference in LSM (95% CI) [1] | 24 h MASBP Difference in LSM (95% CI) [1] | 24-hour MADBP, estimated treatment difference (lumiracoxib 100 mg od vs ibuprofen 600 mg tid, Week 4, [95% CI: -2.7, -1.3], p<0.001)
1 |  |  | CC(C)Cc1ccc(C(C)C(=O)O)cc1 (stereo not shown) [ibuprofen] | 2.2 mmHg |  |  |  | 
2 | 13 patients | 9.3% | Cc1ccc(Nc2c(F)cccc2Cl)c(CC(=O)O)c1 [lumiracoxib, 5-methyl-2-(2'-chloro-6'-fluoroanilino)phenylacetic acid] |  | 2.7 mmHg | -3.9 (-5.1,-2.7)* | -7.5 (-9.6, -5.5)* | -2 mmHg
